Laboratory results from patent US8846601B2, “Melanocortin receptor-specific peptides” (Palatin Technologies, Inc., priority 2009, dated 2014).
Read-outs that look alike come from different tables or passages of the source. Peptide text beside a SMILES is read from it.

Columns and labels:
[1] = molecular target: T1, MC1-R (B-16 mouse melanoma cells) (Mus musculus (Mouse), UniProt Q01727); experiment: Competitive binding using Eu-labeled NDP-α-MSH, MC1-R
Method: A competitive inhibition binding assay is performed using membrane homogenates prepared from HEK-293 cells that express recombinant hMC4-R, hMC3-R, or hMC5-R, and from B-16 mouse melanoma cells (containing endogenous MC1-R). In some instances, HEK-293 cells that express recombinant hMC1-R were employed. In the examples that follow, all MC3-R, MC4-R and MC5-R values are for human recombinant receptors. MC1-R values are for B-16 mouse melanoma cells, unless the heading is “hMC1-R”, in which case the value is for human recombinant MC1-R. Assays were performed in 96 well GF/B Millipore multiscreen filtration plates (MAFB NOB10) pre-coated with 0.5% bovine serum albumin (Fraction V). Membrane homogenates were incubated with 0.2 nM (for hMC4-R) 0.4 nM (for MC3-R and MC5-R) or 0.1 nM (for mouse B16 MC1-R or hMC1-R) [I^125]-NDP-α-MSH (Perkin Elmer) and increasing concentrations of test peptides of the present invention in buffer containing 25 mM HEPES buffer (pH 7.5) with 100 mM NaCl, 2 mM CaCl2, 2 mM MgCl2, 0.3 mM 1,10-phenanthroline, and 0.2% bovine serum albumin. After incubation for 60 minutes at 37° C., the assay mixture was filtered and the membranes washed three times with ice-cold buffer. Filters were dried and counted in a gamma counter for bound radioactivity. […] Maximal specific binding (100%) was defined as the difference in radioactivity (cpm) bound to cell membranes in the absence and presence of 1 μM NDP-α-MSH. […] Ki values for test peptides of the present invention were determined using Graph-Pad Prism® curve-fitting software.
Alternatively, a competitive inhibition binding assay was performed employing Eu-NDP-α-MSH (PerkinElmer Life Sciences catalog No. AD0225) with determination by time-resolved fluorometry (TRF) of the lanthanide chelate. […] The plates were incubated on a shaker for 15 minutes and read at 340 nm excitation and 615 nm emission wavelengths. […] Ki values were determined by curve-fitting with Graph-Pad Prism® software using a one-site fixed-slope competition binding model.

[2] = molecular target: T1, MC1-R (B-16 mouse melanoma cells); experiment: Competitive inhibition binding assay using [I125]-NDP-α-MSH, MC1-R
Method: (§1) A competitive inhibition binding assay is performed using membrane homogenates prepared from HEK-293 cells that express recombinant hMC4-R, hMC3-R, or hMC5-R, and from B-16 mouse melanoma cells (containing endogenous MC1-R). In some instances, HEK-293 cells that express recombinant hMC1-R were employed. In the examples that follow, all MC3-R, MC4-R and MC5-R values are for human recombinant receptors. MC1-R values are for B-16 mouse melanoma cells, unless the heading is “hMC1-R”, in which case the value is for human recombinant MC1-R. Assays were performed in 96 well GF/B Millipore multiscreen filtration plates (MAFB NOB10) pre-coated with 0.5% bovine serum albumin (Fraction V). […] Filters were dried and counted in a gamma counter for bound radioactivity. […] Maximal specific binding (100%) was defined as the difference in radioactivity (cpm) bound to cell membranes in the absence and presence of 1 μM NDP-α-MSH. […] Ki values for test peptides of the present invention were determined using Graph-Pad Prism® curve-fitting software.

Male Sprague-Dawley rats [3] = experiment: Induction of penile erection in male rats; type: in vivo, rat; conditions: for induction of penile erection: male Sprague-Dawley rats, 60 minute observation, No. 154 as trifluoracetic acid salt, No. 155 as acetate salt
From the text: Each dose group contained six or seven animals, with video observation for sixty minutes following administration.

hMC4-R [4] = molecular target: T2, hMC4-R (Homo sapiens (Human), UniProt P32245); experiment: Assay for agonist activity: cAMP accumulation in HEK-293 cells that express hMC4-R; conditions: for functional status at MC4-R (agonist / partial agonist): agonist = intrinsic activity 70% or higher, partial agonist 10-70%
T2 sequence (P32245 whole entry): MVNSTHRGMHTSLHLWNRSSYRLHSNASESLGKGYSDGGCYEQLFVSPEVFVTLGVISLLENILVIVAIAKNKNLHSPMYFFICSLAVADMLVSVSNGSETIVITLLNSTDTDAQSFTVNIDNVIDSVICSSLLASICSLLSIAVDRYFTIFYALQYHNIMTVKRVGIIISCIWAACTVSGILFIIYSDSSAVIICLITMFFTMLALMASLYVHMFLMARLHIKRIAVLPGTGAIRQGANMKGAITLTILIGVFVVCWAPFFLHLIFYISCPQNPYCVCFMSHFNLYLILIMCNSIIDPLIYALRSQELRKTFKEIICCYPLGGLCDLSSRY
Method: By “intrinsic activity” is meant the maximal functional activity achievable by a compound in a specified melanocortin receptor expressing cell system, such as the maximal stimulation of adenylyl cyclase.
Accumulation of intracellular cAMP was examined as a measure of the ability of the peptides of the present invention to elicit a functional response in HEK-293 cells that express MC4-R. Confluent HEK-293 cells that express recombinant hMC4-R were detached from culture plates by incubation in enzyme-free cell dissociation buffer. Dispersed cells were suspended in Earle's Balanced Salt Solution containing 10 mM HEPES (pH 7.5), 1 mM MgCl2, 1 mM glutamine, 0.5% albumin and 0.3 mM 3-isobutyl-1-methyl-xanthine (IBMX), a phosphodiesterase inhibitor. […] Cells were exposed for 15 minutes at 37° C. to peptides of the present invention dissolved in DMSO (final DMSO concentration of 1%) at a concentration range of 0.05-5000 nM in a total assay volume of 200 μL. […] Data analysis was performed by nonlinear regression analysis with Graph-Pad Prism® software. The maximum efficacies of the test peptides of the present invention were compared to that achieved by the reference melanocortin agonist NDP-αMSH.

hMC3-R [5] = molecular target: T3, hMC3-R (Homo sapiens (Human), UniProt P41968); experiment: Competitive binding using Eu-labeled NDP-α-MSH, MC3-R
T3 sequence (P41968 whole entry): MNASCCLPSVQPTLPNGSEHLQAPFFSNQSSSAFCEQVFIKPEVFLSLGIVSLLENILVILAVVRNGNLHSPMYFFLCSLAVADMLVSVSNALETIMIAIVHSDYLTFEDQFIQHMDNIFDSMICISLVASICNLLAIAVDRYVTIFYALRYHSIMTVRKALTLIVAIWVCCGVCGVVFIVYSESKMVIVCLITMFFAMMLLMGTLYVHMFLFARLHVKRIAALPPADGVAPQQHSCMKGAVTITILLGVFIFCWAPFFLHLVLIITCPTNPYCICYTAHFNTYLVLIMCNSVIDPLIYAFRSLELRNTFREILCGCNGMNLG
Method: as §1
Alternatively, a competitive inhibition binding assay was performed employing Eu-NDP-α-MSH (PerkinElmer Life Sciences catalog No. AD0225) with determination by time-resolved fluorometry (TRF) of the lanthanide chelate. […] The plates were incubated on a shaker for 15 minutes and read at 340 nm excitation and 615 nm emission wavelengths. […]

Male Sprague-Dawley rats [6] = experiment: Rat feeding studies: food intake and body weight change; type: in vivo; conditions: for food intake and rate of change in body weight: rat feeding studies, bremelanotide as positive control; for decrease in food consumption compared to control: rats
Method: Change in food intake and body weight was evaluated for selected peptides administered by intravenous (IV) or subcutaneous injection routes. Male Sprague-Dawley rats were obtained from Hilltop Lab Animals, Inc. (Scottsdale, Pa.) or other vendors. Animals were individually housed in conventional polystyrene hanging cages and maintained on a controlled 12 hour on/off light cycle. Water and pelleted food was provided ad libitum. The rats were dosed IV with vehicle or selected peptides (0.3 to 1.0 mg/kg), or dosed subcutaneously with vehicle or selected peptides (doses up to 30 mg/kg). […] The changes in body weight and food intake for the 48 hour and 72 hour periods after dosing can also be measured to determine reversal of changes in body weight and food intake effects back to baseline levels.

hMC3-R [7] = molecular target: T3, hMC3-R; experiment: Competitive inhibition binding assay using [I125]-NDP-α-MSH, MC3-R
Method: (§2) A competitive inhibition binding assay is performed using membrane homogenates prepared from HEK-293 cells that express recombinant hMC4-R, hMC3-R, or hMC5-R, and from B-16 mouse melanoma cells (containing endogenous MC1-R). In some instances, HEK-293 cells that express recombinant hMC1-R were employed. In the examples that follow, all MC3-R, MC4-R and MC5-R values are for human recombinant receptors. […] Membrane homogenates were incubated with 0.2 nM (for hMC4-R) 0.4 nM (for MC3-R and MC5-R) or 0.1 nM (for mouse B16 MC1-R or hMC1-R) [I^125]-NDP-α-MSH (Perkin Elmer) and increasing concentrations of test peptides of the present invention in buffer containing 25 mM HEPES buffer (pH 7.5) with 100 mM NaCl, 2 mM CaCl2, 2 mM MgCl2, 0.3 mM 1,10-phenanthroline, and 0.2% bovine serum albumin. After incubation for 60 minutes at 37° C., the assay mixture was filtered and the membranes washed three times with ice-cold buffer. Filters were dried and counted in a gamma counter for bound radioactivity. […] Maximal specific binding (100%) was defined as the difference in radioactivity (cpm) bound to cell membranes in the absence and presence of 1 μM NDP-α-MSH. […] Each assay was conducted in triplicate and the actual mean values are described, with results less than 0% reported as 0%. Ki values for test peptides of the present invention were determined using Graph-Pad Prism® curve-fitting software.

hMC1-R [8] = molecular target: T4, hMC1-R (Homo sapiens (Human), UniProt Q01726); experiment: Functional assay (EC50 and intrinsic activity) at hMC1-R; type: cell-based
T4 sequence (Q01726 whole entry): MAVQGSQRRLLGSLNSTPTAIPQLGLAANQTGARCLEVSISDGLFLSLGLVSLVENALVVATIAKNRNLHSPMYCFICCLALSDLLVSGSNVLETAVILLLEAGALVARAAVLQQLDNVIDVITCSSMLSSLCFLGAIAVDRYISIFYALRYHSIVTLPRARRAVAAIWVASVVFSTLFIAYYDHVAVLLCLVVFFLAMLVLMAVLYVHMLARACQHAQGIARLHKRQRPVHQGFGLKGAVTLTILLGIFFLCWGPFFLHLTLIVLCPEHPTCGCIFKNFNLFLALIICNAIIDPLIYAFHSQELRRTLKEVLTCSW

hMC1-R [9] = molecular target: T4, hMC1-R; experiment: Competitive inhibition binding assay, human recombinant MC1-R
Method: as §2

[10] = Pharmacokinetic studies, rat model, subcutaneous injection; conditions: in vivo, sc, formulation as in Section 9.7, read-out: circulation half life (converted)
hMC4-R [11] = molecular target: T2, hMC4-R; experiment: Competitive inhibition binding assay using [I125]-NDP-α-MSH, hMC4-R membranes
Procedure, shortened: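 Membranes from HEK-293 cells expressing recombinant hMC1-R or hMC4-R incubated with 0.1 nM (MC1-R) or 0.2 nM (MC4-R) [I125]-NDP-α-MSH and increasing peptide concentrations in HEPES pH 7.5, 60 min at 37 °C; filtered, gamma counted.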

[12] = 1 mg/kg, 0-2, 0-4 and 0-20 hour periods

T1 sequence (Q01727 whole entry): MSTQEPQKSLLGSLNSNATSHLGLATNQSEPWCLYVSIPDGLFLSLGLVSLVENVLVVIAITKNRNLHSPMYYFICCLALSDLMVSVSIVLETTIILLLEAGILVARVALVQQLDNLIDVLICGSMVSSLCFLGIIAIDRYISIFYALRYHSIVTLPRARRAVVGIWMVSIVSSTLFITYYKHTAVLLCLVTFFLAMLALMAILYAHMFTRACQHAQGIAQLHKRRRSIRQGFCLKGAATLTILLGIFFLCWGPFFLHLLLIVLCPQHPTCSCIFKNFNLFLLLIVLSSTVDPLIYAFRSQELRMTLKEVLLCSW

Ki [1] | functional status at MC4-R (agonist / partial agonist) (hMC4-R [4]) | Ki (hMC3-R [5]) | EC50 (hMC1-R [8]) | Ki (hMC1-R [9]) | half-life [10] | Structure (SMILES) | Ki [2] | food intake and rate of change in body weight (Male Sprague-Dawley rats [6]) | decrease in food consumption compared to control (Male Sprague-Dawley rats [6]; [12]) | induction of penile erection (Male Sprague-Dawley rats [3]; subcutaneous) | also measured
0.004 µM | agonist | 0.103 µM | – | – | – | CC(=O)N[C@@H](CCCNC(=N)N)C(=O)N[C@H]1CC(=O)NCCCC[C@@H](C(N)=O)NC(=O)[C@H](Cc2c[nH]c3ccccc23)NC(=O)[C@H](CCCNC(=N)N)NC(=O)[C@@H](Cc2ccccc2)NC(=O)[C@H](Cc2c[nH]cn2)NC1=O [Peptide No. 1, Ac-Arg-cyclo(Asp-His- D-Phe-Arg-Trp-Lys)- NH2] | 0.003 µM | reduce food intake and decrease the rate of change in body weight | statistically significant | – | observed spontaneous erections compared to vehicle (Male Sprague-Dawley rats [3]; rats, IV, doses of 0.3 or 1 mg/kg): statistically significant increase; decrease in food consumption compared to control (Male Sprague-Dawley rats [6]; 0.3 mg/kg, 0-2, 0-4 and 0-20 hour periods): statistically significant
0.323 µM | partial agonist | 1.05 µM | – | – | – | CC(=O)N[C@@H](CCCNC(=N)N)C(=O)N[C@H]1CC(=O)NCCCC[C@@H](C(N)=O)NC(=O)[C@H](Cc2c[nH]c3ccccc23)NC(=O)[C@H](CCCNC(=N)N)NC(=O)[C@@H](Cc2ccccc2)NC(=O)[C@H](C(C)C)NC1=O [Peptide No. 16, Ac-Arg-cyclo(Asp-Val- D-Phe-Arg-Trp-Lys)- NH2] | – | reduce food intake and decrease the rate of change in body weight | statistically significant | – | decrease in food consumption compared to control (Male Sprague-Dawley rats [6]; 0.3 mg/kg, 0-2 and 0-4 hour periods): statistically significant

The next lines start with the molecule.

Structure (SMILES) | Ki [1] | functional status at MC4-R (agonist / partial agonist) (hMC4-R [4]) | Ki (hMC3-R [5]) | EC50 (hMC1-R [8]) | Ki (hMC1-R [9]) | half-life [10] | Ki [2] | food intake and rate of change in body weight (Male Sprague-Dawley rats [6]) | decrease in food consumption compared to control (Male Sprague-Dawley rats [6]; [12]) | induction of penile erection (Male Sprague-Dawley rats [3]; subcutaneous) | also measured
CC(=O)N[C@@H](CCCNC(=N)N)C(=O)N[C@H]1CC(=O)NCCCC[C@@H](C(N)=O)NC(=O)[C@H](Cc2c[nH]c3ccccc23)NC(=O)[C@H](CCCNC(=N)N)NC(=O)[C@@H](Cc2ccccc2)NC(=O)[C@H](CCC(N)=O)NC1=O [Peptide No. 32, Ac-Arg-cyclo(Asp-Gln- D-Phe-Arg-Trp-Lys)- NH2] | 0.673 µM | agonist | – | – | – | – | 0.133 µM | – | – | – | observed spontaneous erections (Male Sprague-Dawley rats [3]; rats, subcutaneous, doses of 1, 3 or 10 mg/kg): increase in observed spontaneous erections; Ki (hMC3-R [7]): 0.34 µM
CC(=O)N[C@@H](CCCNC(=N)N)C(=O)N[C@H]1CCCNC(=O)CC[C@@H](C(N)=O)NC(=O)[C@H](Cc2c[nH]c3ccccc23)NC(=O)[C@H](CCCNC(=N)N)NC(=O)[C@@H](Cc2ccccc2)NC(=O)[C@H](CC(N)=O)NC1=O [compound 154, Ac-Arg-cyclo(Orn-Asn- D-Phe-Arg-Trp-Glu)- NH2] | – | – | – | 0.025 µM | 0.688 µM | ~42 min | – | – | – | robustly induce a penile erection | –
CC(=O)N[C@@H](CCCNC(=N)N)C(=O)N[C@H]1CCCCNC(=O)C[C@@H](C(N)=O)NC(=O)[C@H](Cc2c[nH]c3ccccc23)NC(=O)[C@H](CCCNC(=N)N)NC(=O)[C@@H](Cc2ccccc2)NC(=O)[C@H](CC(N)=O)NC1=O [compound 155, Ac-Arg-cyclo(Lys-Asn- D-Phe-Arg-Trp-Asp)- NH2] (HELM PEPTIDE1{[ac].R.K.N.[dF].R.W.D.[am]}$PEPTIDE1,PEPTIDE1,3:R3-8:R3$$$V2.0) | – | – | – | 0.014 µM | 0.24 µM | ~42 min | – | – | – | robustly induce a penile erection | EC50 (hMC4-R [4]): 0.000189 µM; Ki (hMC4-R [11]; averaged, [I125]-NDP-α-MSH (values not marked *), read-out: MC4-R Ki): 0.005 µM; Ki (hMC4-R [11]; read-out: hMC4-R (Ki)): 0.005 µM
